Experimental data published in US4208520A, “7-(Substituted)-7H-pyrrolo[3,2-f]quinazoline-1,3-diamines” (American Home Products Corporation, priority 1978, dated 1980).
Converted amounts (≈) assume the structure as drawn. Where two headings read alike, the source gives them in different places.

Tests used:
S. paratyphi 11737 = assay: In vitro antibacterial activity (minimal inhibitory concentration, agar dilution); format: cell-based; conditions: Salmonella enterica, Wellcotest Sensitivity Test Agar with 5% hemolyzed horse blood, 18 hours at 35° C.
Description: (§1) The compounds have shown activity in vitro against one or more of the following strains of bacteria: S. aureus Smith, S. aureus 53-180, N. catarrhalis 8193, E. coli 9637, S. paratyphi 11737, K. pneumoniae 10031, or P. vulgaris 6896.
(§2) A stock solution or suspension of the test compound at a concentration of 2500 μg/ml. is prepared utilizing a suitable solvent or medium such as aqueous sodium hydroxide, aqueous lactic acid, methyl cellosolve, dimethylsulfoxide, dimethylacetamide, ethylene glycol, dimethylformamide, formamide, propylene glycol, acetone or methanol. Two-fold dilutions are made by adding appropriate amounts of sterile water to the solution or suspension of the test substance. One ml. quantities of each dilution are incorporated into Wellcotest Sensitivity Test Agar fortified with 5% hemolyzed horse blood (9 ml. vol.) in sterile Petri dishes to give plates containing varying concentrations of the test compound. The hardened surfaces of each plate are incubated with the test organism, and the plates are incubated for 18 hours at 35° C.

S. aureus 53-180 = assay: as above; format: cell-based
Description: as §1, §2

E. coli 9637 = assay: as above; format: cell-based
Description: as §1, §2

P. vulgaris 6896 = assay: as above; format: cell-based
Description: as §1, §2

S. aureus Smith = assay: as above; format: cell-based; conditions: Staphylococcus aureus
Description: as §1, §2

K. pneumoniae 10031 = assay: as above; format: cell-based
Description: as §1, §2

N. catarrhalis 8193 = assay: as above; format: cell-based; conditions: Wellcotest Sensitivity Test Agar with 5% hemolyzed horse blood, 18 hours at 35° C.
Description: as §1, §2

Escherichia coli (E-2) = assay: In vivo antibacterial synergism with sulfomethoxazole (mouse protection test); conditions: E. coli (E-2), CD-1 mice; for ED50: Escherichia coli, po, single dose, alone, treated immediately after infecting, read-out: PD50
Description: (§3) The test agent is weighed, suspended in 0.5% aqueous carboxymethyl cellulose, hemogenized (glass tissue grinder) and diluted according to the design of the experiment. Mice (male, 18±1 g., CD-1 strain) are pre-weighed, pooled, infected at random intraperitoneally with a 0.5 ml. standardized suspension (LD95 ±5%) of the bacterial organism in 5% gastric mucin and treated at random with single doses of the test agents either at the time of infection or six hours after infecting. The treated groups consist of ten mice per dosage level. Deaths are recorded daily for 14 days and the PD50 (mice are treated at time of infection) and CD50 (mice are treated six hours after infecting) values are calculated by the method of Reed and Muench [Amer. J. Hyg., 27, (1938)].

Escherichia coli (E-3) = assay: as above; conditions: E. coli (E-3), CD-1 mice; for ED50: Escherichia coli, po, single dose, alone, treated immediately after infecting, read-out: PD50
Description: as §3

[1] = system: Staphylococcus aureus CHP; assay: as above; conditions: CD-1 mice; for ED50: po, single dose, alone, treated immediately after infecting, read-out: PD50
Description: as §3

bacterial infections = assay: Potentiation of sulfa drug against bacterial infections in mice, oral; format: in vivo, mouse; conditions: oral route of administration in mice
Description: The invention also provides compounds which will potentiate the antibacterial effects of sulfa drugs.
as §3

[2] = Staphylococcus aureus, 53180, S. aureus 53-180, Wellcotest Sensitivity Test Agar with 5% hemolyzed horse blood, 18 hours at 35° C., read-out: MIC
[3] = Escherichia coli, E. coli 9637, Wellcotest Sensitivity Test Agar with 5% hemolyzed horse blood, 18 hours at 35° C., read-out: MIC
[4] = Proteus vulgaris, P. vulgaris 6896, Wellcotest Sensitivity Test Agar with 5% hemolyzed horse blood, 18 hours at 35° C., read-out: MIC
[5] = S. aureus Smith, Wellcotest Sensitivity Test Agar with 5% hemolyzed horse blood, 18 hours at 35° C., read-out: MIC
[6] = Klebsiella pneumoniae, K. pneumoniae 10031, Wellcotest Sensitivity Test Agar with 5% hemolyzed horse blood, 18 hours at 35° C., read-out: MIC
[7] = Staphylococcus aureus, 53180, 18 h
[8] = Klebsiella pneumoniae, 10031, 18 h
[9] = p.o., SM dose in combination with Cpd.
[10] = p.o., Cpd. dose in combination with SM

| SMILES | MIC (S. paratyphi 11737) [µg/mL] | MIC (S. aureus 53-180; [2]) [µg/mL] | MIC (E. coli 9637; [3]) [µg/mL] | MIC (P. vulgaris 6896; [4]) [µg/mL] | MIC (S. aureus Smith; [5]) [µg/mL] | MIC (K. pneumoniae 10031; [6]) [µg/mL] | MIC (S. aureus 53-180; [7]) [µg/mL] | MIC (S. aureus Smith; 18 h) [µg/mL] | MIC (N. catarrhalis 8193) [µg/mL] | other results |
| --- | --- | --- | --- | --- | --- | --- | --- | --- | --- | --- |
| CC(=O)c1cccc(Cn2ccc3c4c(N)nc(N)nc4ccc32)c1 [Example 3] | 0.976 (≈ 2.95 µM) | 0.061 (≈ 0.184 µM) | 0.244 (≈ 0.736 µM) | 3.9 (≈ 11.8 µM) | 0.122 (≈ 0.368 µM) | 0.031 (≈ 0.0935 µM) | – | – | – | – |
| CC(C)OC(=O)c1ccc(Cn2ccc3c4c(N)nc(N)nc4ccc32)cc1 [Example 6] | 62.5 (≈ 166 µM) | – | 15.6 (≈ 41.6 µM) | 125 (≈ 333 µM) | – | – | 0.488 (≈ 1.3 µM) | 0.488 (≈ 1.3 µM) | 0.122 (≈ 0.325 µM) | MIC (K. pneumoniae 10031; [8]): 0.488 µg/mL (≈ 1.3 µM) |
| COC(=O)c1ccc(Cn2ccc3c4c(N)nc(N)nc4ccc32)cc1 [Example 8] | 250 (≈ 720 µM) | – | – | – | – | 15.6 (≈ 44.9 µM) | 7.81 (≈ 22.5 µM) | 31.3 (≈ 90.1 µM) | – | MIC (E. coli 9637; Escherichia coli, 9637, 18 h): 62.5 µg/mL (≈ 180 µM); MIC (P. vulgaris 6896; Proteus vulgaris, 6896, 18 h): 250 µg/mL (≈ 720 µM) |
| COC(=O)c1cccc(Cn2ccc3c4c(N)nc(N)nc4ccc32)c1 [Example 4] | 31.3 (≈ 90.1 µM) | 0.122 (≈ 0.351 µM) | 1.95 (≈ 5.61 µM) | 125 (≈ 360 µM) | – | 0.244 (≈ 0.702 µM) | – | 0.976 (≈ 2.81 µM) | – | – |
| Nc1nc(N)c2c(ccc3c2ccn3Cc2ccc(Cl)cc2Cl)n1 [Example 2, 7-[(2,4-Dichlorophenyl)methyl]-7H-pyrrolo[3,2-f]quinazoline-1,3-diamine] | 31.3 (≈ 87.4 µM) | – | 3.9 (≈ 10.9 µM) | – | – | – | 0.488 (≈ 1.36 µM) | 0.976 (≈ 2.72 µM) | 0.0038 (≈ 0.0106 µM) | MIC (K. pneumoniae 10031; [8]): 0.488 µg/mL (≈ 1.36 µM) |
| NC(=O)c1ccc(-n2ccc3c4c(N)nc(N)nc4ccc32)cc1 [Example 13] | – | – | – | – | 1.95 (≈ 6.13 µM) | 0.976 (≈ 3.07 µM) | 7.81 (≈ 24.5 µM) | – | – | – |
| Nc1nc(N)c2c(ccc3c2ccn3-c2ccc(C(F)(F)F)cc2)n1 [Example 12] | – | – | – | – | – | 3.9 (≈ 11.4 µM) | 31.3 (≈ 91.2 µM) | 31.3 (≈ 91.2 µM) | – | MIC (E. coli 9637; Escherichia coli, 9637, 18 h): 250 µg/mL (≈ 728 µM) |
| Cc1ccnc(-n2ccc3c4c(N)nc(N)nc4ccc32)c1 [Example 11] | 7.81 (≈ 26.9 µM) | – | 3.9 (≈ 13.4 µM) | 15.6 (≈ 53.7 µM) | – | 0.244 (≈ 0.84 µM) | 0.976 (≈ 3.36 µM) | 3.9 (≈ 13.4 µM) | 0.0152 (≈ 0.0524 µM) | – |
| CCCC(C)OC(=O)c1ccc(Cn2ccc3c4c(N)nc(N)nc4ccc32)cc1 (stereo not drawn) [Example 7] | – | 7.81 (≈ 19.4 µM) | – | – | 15.6 (≈ 38.7 µM) | 15.6 (≈ 38.7 µM) | – | – | 7.81 (≈ 19.4 µM) | – |
| Nc1nc(N)c2c(ccc3c2ccn3Cc2ccc(O)cc2)n1 [Example 9, 7-[(4-Hydroxyphenyl)methyl]-7H-pyrrolo[3,2-f]quinazoline-1,3-diamine] | 3.9 (≈ 12.8 µM) | – | – | – | – | 0.244 (≈ 0.799 µM) | 0.488 (≈ 1.6 µM) | 0.488 (≈ 1.6 µM) | – | MIC (E. coli 9637; Escherichia coli, 9637, 18 h): 0.976 µg/mL (≈ 3.2 µM); MIC (P. vulgaris 6896; Proteus vulgaris, 6896, 18 h): 250 µg/mL (≈ 819 µM) |
| Cc1cc(NS(=O)(=O)c2ccc(N)cc2)no1 [SM, sulfomethoxazole, reference compound] | – | – | – | – | – | – | – | – | – | ED50 (Escherichia coli (E-2)): 25 mg/kg; PD50 of SM in combination SM/Cpd. (Escherichia coli (E-2); [9]): 5.25 mg. per kg.; ED50 (Escherichia coli (E-3)): 28.1 mg/kg; PD50 of SM in combination SM/Cpd. (Escherichia coli (E-3); [9]): 12.5 mg. per kg.; PD50 of SM in combination SM/Cpd. [1, 9]: 50 mg. per kg.; ED50 [1]: 259 mg/kg |
| Nc1nc(N)c2c(ccc3c2ccn3-c2ccncc2)n1 [Example 10, 7-(4-Pyridinyl)-7H-pyrrolo-[3,2-f]quinazoline-1,3-diamine] | 0.976 (≈ 3.53 µM) | 0.224 (≈ 0.811 µM) | 0.244 (≈ 0.883 µM) | – | 0.448 (≈ 1.62 µM) | – | – | – | 0.0152 (≈ 0.055 µM) | synergistic effect with sulfamethoxazole against bacterial infections (bacterial infections): gave a synergistic effect with sulfamethoxazole against bacterial infections; MIC (P. vulgaris 6896; Proteus vulgaris, 6896, 18 h): 62.5 µg/mL (≈ 226 µM); MIC (K. pneumoniae 10031; [8]): 0.976 µg/mL (≈ 3.53 µM); ED50 (Escherichia coli (E-2)): > 400 mg/kg; PD50 of Cpd. in combination SM/Cpd. (Escherichia coli (E-2); [10]): 1.20 mg. per kg.; ED50 (Escherichia coli (E-3)): 313 mg/kg; PD50 of Cpd. in combination SM/Cpd. (Escherichia coli (E-3); [10]): 6.25 mg. per kg.; PD50 of Cpd. in combination SM/Cpd. [1, 10]: 7.28 mg. per kg.; ED50 [1]: > 400 mg/kg |
